{"source": "patent US7645792B2", "about": "“Prodrugs of propofol, compositions and uses thereof” (XenoPort, Inc., priority 2004, dated 2010)", "origin": "cited, not measured here", "details": "rats, oral dosing"}
{"smiles": "CC(C)c1cccc(C(C)C)c1O", "note": "[propofol, 2,6-diisopropylphenol]", "values": [{"measurement": "Administered drug undergoing first pass metabolism", "result": "approximately 90%"}]}
